Where two headings read alike, the source gives them in different places. Starred links: 1 amine or outer side, 2 acyl side, 3 side chain; linkers in the order of their positions; H or OH if unused. Positions of bridges follow the written chain, without caps; N, C: chain ends. Non-standard residues stand in square brackets, D forms with d. Residues, ends and D or L forms follow the SMILES beside them. *: point of attachment. Phe(3-(CH2)4CO) = O=C([C@H](Cc1cccc(CCCCC(=O)[*:3])c1)N[*:1])[*:2]; NEtPhe = CCN[C@@H](Cc1ccccc1)C(=O)O; NMeF = CN[C@@H](Cc1ccccc1)C(=O)O; NMeGABA = CN(CCCC(=O)[*:2])[*:1]; NMeI = CC[C@H](C)[C@H](NC)C(=O)O; 3Pal = N[C@@H](Cc1cccnc1)C(=O)O; NMeβAla = CN(CCC(=O)[*:2])[*:1]; Aoc(2) = CCCCCC[C@H](N)C(=O)O; NMeL = CN[C@@H](CC(C)C)C(=O)O; NMeV = CN[C@H](C(=O)O)C(C)C; NMeS = CN[C@@H](CO)C(=O)O; NMeA = CN[C@@H](C)C(=O)O; Piperidide = C1CCN(*)CC1; dNMeA = CN[C@H](C)C(=O)O; β3hA = C[C@H](N)CC(=O)O; Sar = CNCC(=O)O; tBu = CC(C)(C)*
Experiments:
[1] = PAMPA (parallel artificial membrane permeability assay); format: in vitro ADME; conditions: for Papp at 18 hours, 50 µM: PAMPA
Outline: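 Artificial membrane was 10% (w/v) egg lecithin plus 0.5% (w/v) cholesterol in dodecane on a PVDF filter. A 10 mM DMSO stock was added at 0.5% (v/v) to donor buffer (50 mM MOPSO, pH 6.5, 5.0% glycocholic acid). After 18 h at 37 °C, LC/MS or LC/UV gave donor and acceptor levels for Pe.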

[2] = Metabolic stability in human hepatic microsome; format: in vitro ADME; conditions: microsomes
[3] = membrane permeation rate (Pe), 50 mM MOPSO buffer pH 6.5 with 5.0% glycocholic acid, 37° C., 18 hours, read-out: iPAMPA Pe
[4] = pH 7.4, human hepatic microsome, NADPH(+), read-out: CL NADPH(+)

Compound	Papp at 18 hours, 50 µM [1, 3] [×10⁻⁶ cm/s]	microsomal CLint at 1 uM [2, 4] [µL/min/mg]	Papp at 18 hours, 50 µM ([1]; pH 6.5) [×10⁻⁶ cm/s]	microsomal CLint at 1 uM ([2]; human, pH 7.4, CL NADPH(+)) [µL/min/mg]	iPAMPA Pe ([1]; membrane permeation rate (Pe), 50 mM MOPSO buffer pH 6.5 with 5.0% glycocholic acid, 37° C., 18 hours)
CCCCCC[C@@H]1NC(=O)[C@H](Cc2ccccc2)N(C)C(=O)[C@H](C)N(C)C(=O)C[C@H](C)NC(=O)[C@H](C(C)C)N(C)C(=O)[C@H](COC(C)(C)C)NC(=O)[C@H](C)N(C)C(=O)CN(C)C(=O)[C@H]([C@@H](C)O)NC(=O)[C@H](CC(C)C)N(C)C1=O [DP-822] (cyclo([Aoc(2)][NMeL]T[Sar][NMeA]S(tBu)[NMeV][β3hA][NMeA][NMeF]))	37	518	–	–	–
CC[C@H](C)[C@H]1C(=O)N[C@@H](C)C(=O)N(C)[C@@H](CC(C)C)C(=O)N[C@@H]([C@@H](C)O)C(=O)N[C@@H](Cc2ccccc2)C(=O)N(C)[C@@H](Cc2ccccc2)C(=O)N(C)[C@@H](CC(C)C)C(=O)N[C@@H](COC(C)(C)C)C(=O)N(C)[C@@H](CC(C)C)C(=O)N(C)[C@@H](C)C(=O)N[C@H](C(=O)N2CCCCC2)CC(=O)N[C@H](C(C)C)C(=O)N1C [DP-219] ([dV][NMeI]A[NMeL]TF[NMeF][NMeL]S(tBu)[NMeL][NMeA]D-Piperidide; lactam N-12)	1.3	49	–	–	–
CC[C@H](C)[C@@H]1NC(=O)[C@H](C)NC(=O)C[C@@H](C(=O)N(C)[C@@H](CC(C)C)C(=O)N(C)[C@@H](C)C(=O)N(C)[C@@H](Cc2ccccc2)C(=O)N[C@@H](C)C(=O)N2CCCCC2)NC(=O)[C@@H]2CCCN2C(=O)[C@H](CC(C)C)NC(=O)[C@H](Cc2ccccc2)N(C)C(=O)[C@H]([C@@H](C)O)NC(=O)[C@H](Cc2ccccc2)N(C)C(=O)[C@H](C)N(C)C1=O [DP-667] (AI[NMeA][NMeF]T[NMeF]LPD[NMeL][NMeA][NMeF]A-Piperidide; lactam N-9)	19	39	–	–	–
CC(C)C[C@H]1C(=O)N(C)[C@@H](Cc2ccccc2)C(=O)N[C@@H]([C@@H](C)O)C(=O)N(C)[C@@H](C)C(=O)N(C)[C@@H](CC(C)C)C(=O)N(C)[C@@H](CC(C)C)C(=O)N[C@H](C(=O)N2CCCCC2)CC(=O)N(C)CCCC(=O)N[C@@H](COC(C)(C)C)C(=O)N(C)CC(=O)N1C [DP-122] ([NMeGABA]S(tBu)[Sar][NMeL][NMeF]T[NMeA][NMeL][NMeL]D-Piperidide; lactam N-10)	–	–	32	169	–
CC(C)C[C@H]1C(=O)N(C)[C@@H](C(C)C)C(=O)N[C@@H](Cc2ccccc2)C(=O)N[C@H](C(=O)N2CCCCC2)CC(=O)N(C)CCCC(=O)N[C@@H](COC(C)(C)C)C(=O)N(C)[C@@H](CC(C)C)C(=O)N(C)[C@@H](Cc2ccccc2)C(=O)N[C@@H]([C@@H](C)O)C(=O)NCC(=O)N1C [DP-277] ([NMeGABA]S(tBu)[NMeL][NMeF]TG[NMeL][NMeV]FD-Piperidide; lactam N-10)	38	389	–	–	–
CC[C@H](C)[C@H]1C(=O)N[C@H](C(=O)N2CCCCC2)CC(=O)N(C)CCCC(=O)N(C)[C@@H](Cc2ccccc2)C(=O)N[C@@H]([C@@H](C)O)C(=O)N(C)CC(=O)N[C@@H](COC(C)(C)C)C(=O)N(C)[C@@H](CC(C)C)C(=O)N(C)[C@@H](CC(C)C)C(=O)N1C [DP-272] ([NMeGABA][NMeF]T[Sar]S(tBu)[NMeL][NMeL][NMeI]D-Piperidide; lactam N-9)	49	82	–	–	–
CC(C)C[C@@H]1NC(=O)[C@H](C)NC(=O)C[C@@H](C(=O)N2CCCCC2)NC(=O)[C@H](Cc2ccccc2)N(C)C(=O)[C@H](CC(C)C)N(C)C(=O)[C@H](C)NC(=O)[C@H](Cc2ccccc2)N(C)C(=O)[C@H](CC(C)C)N(C)C1=O [DP-673] (AL[NMeL][NMeF]A[NMeL][NMeF]D-Piperidide; lactam N-8)	30	631	–	–	–
CC(C)C[C@H]1C(=O)N[C@@H](C)C(=O)N(C)[C@@H](C)C(=O)N[C@H](C(=O)N(C)[C@@H](Cc2ccccc2)C(=O)N[C@@H](C)C(=O)N2CCCCC2)CC(=O)N(C)[C@@H](C)C(=O)N(C)[C@@H](C(C)C)C(=O)N(C)[C@@H](C)C(=O)N[C@@H]([C@@H](C)O)C(=O)N(C)[C@@H](C)C(=O)N[C@@H](Cc2ccccc2)C(=O)N1C [DP-458] ([NMeA][NMeV][NMeA]T[NMeA]F[NMeL]A[NMeA]D[NMeF]A-Piperidide; lactam N-10)	7.7	10	–	–	–
CC[C@H](C)[C@@H]1NC(=O)[C@H](C)N(C)C(=O)C[C@@H](C(=O)N(C)[C@@H](Cc2ccccc2)C(=O)N[C@@H](C)C(=O)N2CCCCC2)NC(=O)[C@H](CC(C)C)N(C)C(=O)[C@H](CC(C)C)NC(=O)[C@@H]2CCCN2C(=O)CNC(=O)[C@H](CC(C)C)N(C)C(=O)[C@H](Cc2ccccc2)N(C)C(=O)[C@H](Cc2ccccc2)NC(=O)[C@H]([C@@H](C)O)NC1=O [DP-280] ([NMeA]ITF[NMeF][NMeL]GPL[NMeL]D[NMeF]A-Piperidide; lactam N-11)	–	–	21	28	–
CC(C)C[C@@H]1NC(=O)[C@H](CO)N(C)C(=O)[C@H](CC(C)C)N(C)C(=O)[C@H](CC(C)C)N(C)C(=O)[C@H](CC(C)C)N(C)C(=O)[C@@H](C)NC(=O)C[C@H](C)NC(=O)[C@H](CC(C)C)N(C)C(=O)[C@H](CC(C)C)NC(=O)[C@H](CC(C)C)N(C)C(=O)CN(C)C1=O [DP-639] (cyclo(L[NMeL][β3hA][dA][NMeL][NMeL][NMeL][NMeS]L[Sar][NMeL]))	33	134	–	–	–
CC[C@H](C)[C@@H]1NC(=O)[C@H](CC(C)C)N(C)C(=O)[C@H](CC(C)C)N(C)C(=O)[C@H](C)NC(=O)CCCN(C)C(=O)C[C@@H](C(=O)N2CCCCC2)NC(=O)[C@H](CC(C)C)N(C)C(=O)[C@H](Cc2ccccc2)N(C)C(=O)CN(C)C(=O)[C@H]([C@@H](C)O)NC(=O)[C@H](Cc2ccccc2)N(C)C1=O [DP-275] ([NMeGABA]A[NMeL][NMeL]I[NMeF]T[Sar][NMeF][NMeL]D-Piperidide; lactam N-11)	–	–	36	440	–
CC(C)C[C@@H]1NC(=O)[C@H](Cc2ccccc2)N(C)C(=O)[C@H](CC(C)C)N(C)C(=O)[C@@H](C)N(C)C(=O)C[C@H](C)NC(=O)[C@H](CC(C)C)N(C)C(=O)[C@H](Cc2ccccc2)N(C)C(=O)[C@H]([C@@H](C)O)NC(=O)[C@H](Cc2ccccc2)N(C)C1=O [DP-793] (cyclo(L[NMeF]T[NMeF][NMeL][β3hA][dNMeA][NMeL][NMeF]))	53	218	–	–	–
CC(C)C[C@H]1C(=O)N[C@@H](C(C)C)C(=O)N(C)[C@@H](C)C(=O)N[C@@H]([C@@H](C)O)C(=O)N(C)[C@@H](C)C(=O)N[C@H](C(=O)N2CCCCC2)CC(=O)N(C)CCC(=O)N(C)[C@@H](C)C(=O)N(C)[C@@H](Cc2ccccc2)C(=O)N[C@@H](C)C(=O)N(C)[C@@H](CC(C)C)C(=O)N(C)CC(=O)N1C [DP-511] ([NMeβAla][NMeA][NMeF]A[NMeL][Sar][NMeL]V[NMeA]T[NMeA]D-Piperidide; lactam N-12)	1.1	15	–	–	–
CC(C)C[C@H]1C(=O)N[C@H](C(=O)N(C)[C@@H](Cc2ccccc2)C(=O)N[C@@H](C)C(=O)N2CCCCC2)CC(=O)N(C)CCC(=O)N[C@@H]([C@@H](C)O)C(=O)N(C)[C@@H](C)C(=O)N(C)[C@@H](CC(C)C)C(=O)N[C@@H](C(C)C)C(=O)N(C)[C@@H](Cc2ccccc2)C(=O)N[C@@H](Cc2ccccc2)C(=O)N1C [DP-379] ([NMeβAla]T[NMeA][NMeL]V[NMeF]F[NMeL]D[NMeF]A-Piperidide; lactam N-9)	41	236	–	–	–
CCN1C(=O)CCCCc2cccc(c2)C[C@@H](C(=O)N2CCCCC2)NC(=O)[C@H](CC(C)C)N(C)C(=O)CN(C)C(=O)[C@H]([C@@H](C)O)NC(=O)[C@H](CC(C)C)N(C)C(=O)[C@H](Cc2ccccc2)N(C)C(=O)[C@H](C)NC(=O)[C@@H]1Cc1ccccc1 [DP-863] ([NEtPhe]A[NMeF][NMeL]T[Sar][NMeL][Phe(3-(CH2)4CO)]-Piperidide; lactam N-8)	–	–	35	927	–
CC(C)C[C@@H]1NC(=O)C[C@H](C)NC(=O)[C@H](C(C)C)NC(=O)[C@H](CC(C)C)N(C)C(=O)CN(C)C(=O)[C@H](CC(C)C)NC(=O)[C@H](CO)N(C)C(=O)[C@H](CC(C)C)N(C)C(=O)[C@H](CC(C)C)N(C)C(=O)[C@H](CC(C)C)N(C)C(=O)[C@@H](CC(C)C)NC1=O [DP-643] (cyclo(L[Sar][NMeL]V[β3hA]L[dL][NMeL][NMeL][NMeL][NMeS]))	29	24	–	–	–
CC(C)C[C@@H]1NC(=O)[C@H](C)NC(=O)[C@H]([C@@H](C)O)NC(=O)[C@H](C)N(C)C(=O)C[C@@H](C(=O)N2CCCCC2)NC(=O)[C@H](CC(C)C)N(C)C(=O)[C@H](CC(C)C)NC(=O)[C@H](C(C)C)N(C)C(=O)[C@H](CC(C)C)NC(=O)[C@H](Cc2ccccc2)NC(=O)CN(C)C1=O [DP-421] ([NMeA]TAL[Sar]FL[NMeV]L[NMeL]D-Piperidide; lactam N-11)	29	171	–	–	–
CC(C)C[C@@H]1NC(=O)[C@H](Cc2cccnc2)NC(=O)[C@H](Cc2ccccc2)N(C)C(=O)[C@H](CC(C)C)NC(=O)[C@H](CC(C)C)N(C)C(=O)[C@H](Cc2ccccc2)NC(=O)[C@H](CC(C)C)N(C)C(=O)[C@H](CC(C)C)N(C)C(=O)[C@H](Cc2ccccc2)NC(=O)CN(C)C(=O)C[C@@H](C(=O)N(C)[C@@H](Cc2ccccc2)C(=O)N[C@@H](C)C(=O)N2CCCCC2)NC1=O [DP-600] ([Sar]F[NMeL][NMeL]F[NMeL]L[NMeF][3Pal]LD[NMeF]A-Piperidide; lactam N-11)	–	12	–	–	1.0E−07

From patent US9409952B2, “Peptide-compound cyclization method” (Chugai Seiyaku Kabushiki Kaisha, priority 2011, dated 2016)
